# Measured values reported in patent publication US10073099B2, “Methods and diagnostics for cancer detection and treatment monitoring” (University of New England, priority 2015, dated 2018).
# Counter-ions that a name gives are not always drawn.
# Assays:
# [1] = test system: MPO, Cytochrome P450 reductase; test: MPO and Cytochrome P450 reductase expression and activity after Arginase activity inhibition; assay type: cell-based; conditions: after Arginase activity inhibition with 5 nM ABH
# Excerpt: FIG. 12A and FIG. 12B present analysis of cytochrome P450 reductase; FIG. 12A presents a graph showing expression; FIG. 12B presents a graph showing activity. #, represents significance from ER+ and control groups; and ^, represents significance from ER−[CA] groups. n=4. P<0.01
# FIG. 13A and FIG. 13B present analysis of MPO; FIG. 13A presents a graph showing expression; FIG. 13B presents a graph showing activity. #, represents significance from ER+ and control groups; and ^, represents significance from ER−[CA] groups. n=4. P<0.01.
# (§1) The following inhibitory tests were performed to determine their role (and/or regulatory effect) on extra-tumoral NOHA accumulation. While NOHA is generated by NOS2 during nitric oxide production, it can be utilized in a NOS2 independent mechanism for nitric oxide generation, that could involve myeloperoxidase (MPO) mediated oxidation or cytochrome P450 reductase mediated pathway. Since NOHA is known to be a strong inhibitor of Arginase, and Arginase increase would favor tumor proliferation, the role of Arginase was also explored.
# ER− 3D spheroids = test: Medium NOHA level of 3D spheroids by ELISA in the presence of inhibitors; assay type: cell-based
# Procedure: FIGS. 8A-8D present an analysis of medium NOHA level by ELISA in the presence or absence of inhibitors.
# as §1, with “pathway.” for “pathway. Since NOHA is known to be a strong inhibitor of Arginase, and Arginase increase would favor tumor proliferation, the role of Arginase was also explored.”
# [2] = NOHA stability analysis by ELISA, in vitro medium spiked with NOHA; assay type: physicochemical; conditions: medium spiked with 75 pg/ml NOHA
# Procedure: FIG. 6A presents an In Vitro medium NOHA stability analysis based on incubation duration and temperature condition for up to 6 weeks. n=4.
# ELISA Method. 50 μl of NOHA standard sample concentration prepared in Locke's buffer (viz., 10 mM HEPES, 5.6 mM KCl, 154 mM NaCl, 5.6 mM glucose, 1.2 mM MgCl2, 2.3 mM CaCl2, pH 7.4) was mixed with 50 μl of primary NOHA antibody serum (at 1:200 dilution, Pierce Thermo Fisher) and incubated for 30 min at 4° C. The mixture was added to a 96 well plate pre-coated with […] (at 100 pg/ml concentration, in Locke's buffer). The plate was then incubated for 1 hour on a plate-rotator at 500 rpm, at 2-8° C. After incubation, the well content was aspirated, and the wells were washed three times with 200 μl ice-cold wash buffer (10 mM phosphate buffer pH 7.4, 150 mM NaCl, 0.05% Tween 20). 100 μl of enzyme conjugated secondary antibody (at 1:20,000 dilution in wash buffer) was added, and incubated for 1 hour on a plate rotator at 500 rpm, at 2-8° C. At the end of this incubation, the wells were washed again three times with 200 μl ice-cold wash buffer. […] The plates were then read at 450 nm, within 10 min after adding stop solution.
# In vitro medium. To analyze NOHA stability via ELISA assay, medium was spiked with 75 pg/ml of NOHA and NOHA recovery was determined over 6 weeks at different temperatures (viz., −80° C., −20° C., 4° C., 25° C., 37° C. and 42° C.). […]
# [3] = NOHA stability analysis over temperature in extracellular matrix medium of 3D spheroids, LC-MS; assay type: physicochemical
# Procedure: Extracellular matrix medium from cancerous and non-cancerous 3D spheroid (viz., 300 μl/spheroid cell line), that was collected on day 7 after spheroid formation were divided in to six (6) equal volumes of 50 μl each. Each of the 50-μl fractions/spheroid cell lines were incubated at −80° C., −20° C., 4° C., 25° C., 37° C. and 42° C. for 1, 3, 5, 7, 10, 12, and 14 days. At the end of the incubation, NOHA level was monitored by LC-MS (Tables 4.1-4.6).
# Those medium samples that were incubated at higher temperature of 42° C. suffered the most with NOHA stability, which lasted for only 3 days (Table 4.4).
# Tables 4.1-4.6: NOHA measurements after incubation at various temperatures
structure (smiles),measurement,setting,value
"N[C@@H](CCCCB(O)O)C(=O)O [ABH, 2(s)-amino-6-boronohexanoic acid]",increase in Cytochrome P450 reductase expression and activity,[1],≥ 0.98
same,increase in MPO expression and activity,[1],≥ 1.2 fold
same,change in medium NOHA level,"ER− 3D spheroids; 5 nM ABH, versus absence of ABH",no significant disease specific or ethnic specific change
"NC(=NCCC[C@H](N)C(=O)O)NO [NOHA, N^w-hydroxy-L-Arginine]",period over which NOHA was stable,"[2]; 4° C. and below (4, −20, −80° C.)",6 week
same,period over which NOHA maintained stability,"[2]; 25° C., 37° C. and 42° C.",1 week
same,degradation or reduction in NOHA level,"[3]; extracellular matrix medium at 4° C., −20° C., and −80° C., 14-day incubation",no significant degradation or reduction
same,duration of stable NOHA monitoring level,[3]; medium samples incubated at 25° C.,12 days
same,duration of NOHA stability,[3]; medium samples incubated at 42° C.,3 days
same,duration of stable NOHA monitoring,[3]; medium samples stored at 37° C.,up to 7 days
Clc1ccc(COC(Cn2ccnc2)c2ccc(Cl)cc2Cl)c(Cl)c1 (centres unmarked) [micronazole salt],increase in medium NOHA level,"ER− 3D spheroids; ER−[AA], 10 μM inhibitor, over a 9 week period",≥ 0.79 fold
same,NOHA increase in the medium,"ER− 3D spheroids; ER−[CA], 10 μM inhibitor, over a 9 week period",≥ 0.42 fold
